Laboratory results published in patent publication US12552800B2, “Compounds for diagnosis” (AC IMMUNE SA, priority 2020, dated 2026).

Biological target: T1, PD brain-derived a-syn aggregates (Homo sapiens, UniProt P37840)
T1 construct: from tissue; host or cells: human PD donor brain, sarkosyl-insoluble 100,000 x g pellet
Assay: Micro-radiobinding competition assay against Example-1 [^3H-1] (Table 8)
Assay type: binding
Details: for Competition at 100 nM (%): 100 nM non-radiolabelled example compound vs Example-1 [^3H-1] ligand; for Competition at 100 nM (%) / Competition at 1 μM (%): human PD brain-derived a-syn aggregates; for Competition at 1 μM (%): 1 μM non-radiolabelled example compound vs Example-1 [^3H-1] ligand
Experimental: PD brain-derived a-syn aggregates were spotted onto microarray slides. The slides were incubated with the Example-1 [^3H-1] at 6 nM or 20 nM and the example compounds (non-radiolabelled) at 1 μM and 100 nM. In some cases, the non-radiolabelled example compounds were further assessed for a range of different concentrations, varying from 0.05 nM to 2 μM. After incubation, slides were washed and scanned by a real-time autoradiography system (BeaQuant, ai4R). Quantification of the signal was performed by using the Beamage image analysis software (ai4R). […] All measurements were performed with at least two technical replicates. For compounds tested in more than one experiment, the mean of the replicates or K; values in independent experiments is reported.
Results: Example compounds were assessed for their potency to compete with the binding of Example-1 [^3H-1] ligand to PD patient brain-derived a-syn aggregates. Results of the micro-radiobinding competition assay for the example compounds tested are shown in Table 8 as: % competition at 1 μM and 100 nM.

Compound	Competition at 100 nM (%)	Competition at 1 μM (%)	Ki (mean of Ki values in independent experiments using PD brain-derived homogenates from two different donors) [nM]
O=C1c2cn(-c3ccc(N4CC[C@@H](F)C4)cn3)nc2CN1c1cccnc1 [Example 66]	72	92	–
Cc1c2c(nn1-c1ccc(N3CCCC3)nc1)CN(c1cccc(F)n1)C2=O [Example 144]	49	68	–
CN(C)c1ccc(-n2cc3c(n2)CN(c2cccnc2)C3=O)cn1 [Example 135]	67	96	–
Cc1c2c(nn1-c1ccc(N3CC[C@@H](F)C3)nc1)CN(c1ccncc1)C2=O [Example 94]	18	70	–
N#Cc1cc(N2Cc3nn(-c4ccc(N5CC[C@H](F)C5)nc4)cc3C2=O)ccn1 [Example 111]	82	97	–
O=C1c2cn(-c3ccc(N4CC[C@@H](F)C4)nc3)nc2CN1c1ncccn1 [Example 15]	61	91	–
O=C1c2cn(-c3ccc(N4CCCC4)nc3)nc2CN1c1cnccc1F [Example 47]	39	–	–
O=C1c2cn(-c3ccc(C4CCCC4)nc3)nc2CN1c1cccc(F)n1 [Example 154]	81	99	–
O=C1c2cn(-c3ccc(N4CC[C@@H](F)C4)nc3)nc2CN1c1cccc(F)c1 [Example 68]	63	–	–
O=C1c2cn(-c3ccc(N4CC[C@@H](F)C4)nc3)nc2CN1c1cccc(O)c1 [Example 177]	76	100	–
COc1cccc(N2Cc3nn(-c4ccc(N5CC[C@H](F)C5)nc4)cc3C2=O)c1 [Example 36]	74	91	–
O=C1c2cn(-c3ccc(N4CC[C@H](F)C4)nc3)nc2CN1c1cncc(F)c1 [Example 92]	32	73	–
CC(C)c1ccc(-n2cc3c(n2)CN(c2cccc(F)n2)C3=O)cn1 [Example 157]	21	43	–
O=C1c2cn(-c3ccc(N4CC[C@H](F)C4)nc3)nc2CN1c1cncnc1 [Example 16]	32	70	–
Cc1c2c(nn1-c1ccc(N3CC[C@H](F)C3)nc1)CN(c1ccncc1)C2=O [Example 93]	12	47	–
COc1ccc(N2Cc3nn(-c4ccc(N5CC[C@@H](F)C5)nc4)cc3C2=O)cn1 [Example 8]	67	91	–

Compound	Competition at 100 nM (%)	Competition at 1 μM (%)	Ki (mean of Ki values in independent experiments using PD brain-derived homogenates from two different donors) [nM]
Cn1cc(N2Cc3nn(-c4ccc(N5CCC[C@H](F)C5)nc4)cc3C2=O)cn1 [Example 121]	40	84	–
O=C1c2cn(-c3ccc(N4CCCC4)nc3)nc2CN1c1ncccc1F [Example 103]	41	70	–
N#Cc1ccc(N2Cc3nn(-c4ccc(N5CC[C@H](F)C5)nc4)cc3C2=O)cc1 [Example 59]	86	–	–
Cn1cc(-n2cc3c(n2)CN(c2cncc(F)n2)C3=O)cn1 [Example 149]	–	53	–
N#Cc1ccc(-n2cc3c(n2)CN(c2cccc(F)n2)C3=O)cn1 [Example 156]	80	85	–
Cc1c2c(nn1-c1ccc(N3CCCC3)nc1)CN(c1cncc(F)n1)C2=O [Example 146]	32	53	–
CC(C)c1ccc(-n2cc3c(n2)CN(c2cncc(F)n2)C3=O)cn1 [Example 153]	31	57	–
O=C1c2cn(-c3ccc(C4CCCC4)nc3)nc2CN1c1cncc(F)n1 [Example 161]	42	65	–
N#Cc1ccc(-n2cc3c(n2)CN(c2cncc(F)n2)C3=O)cn1 [Example 155]	51	94	–
O=C1c2cn(-c3ccc(N4CC[C@@H](F)C4)nc3)nc2CN1c1ccccc1 [Example 51]	80	100	–
O=C1c2cn(-c3ccc(N4CC[C@@H](F)C4)cc3)nc2CN1c1cccnc1 [Example 85]	72	99	–
N#Cc1cccc(N2Cc3nn(-c4ccc(N5CC[C@H](F)C5)nc4)cc3C2=O)c1 [Example 65]	64	–	–
N#Cc1ccc(N2Cc3nn(-c4ccc(N5CC[C@@H](F)C5)nc4)cc3C2=O)cc1N [Example 24]	–	97	–
COc1ccc(-n2cc3c(n2)CN(c2cncc(F)n2)C3=O)cn1 [Example 147]	72	86	–
O=C1c2cn(-c3ccc(N4CCOCC4)nc3)nc2CN1c1cncc(F)n1 [Example 141]	51	66	–
O=C1c2cn(-c3ccc(N4CC[C@H](F)C4)cc3)nc2CN1c1cccnc1 [Example 87]	67	92	15

Now from value to molecule:

Competition at 100 nM (%)	Competition at 1 μM (%)	Ki (mean of Ki values in independent experiments using PD brain-derived homogenates from two different donors) [nM]	Compound
22	39	–	COc1cccc(N2Cc3nn(-c4ccc(N5CC[C@@H](F)C5)nc4)cc3C2=O)n1 [Example 74]
48	–	–	O=C1c2cn(-c3ccc(N4CC[C@@H](F)C4)nc3)nc2CN1c1ccnc(O)c1 [Example 171]
69	90	–	COc1ccc(N2Cc3nn(-c4ccc(N5CC[C@H](F)C5)nc4)cc3C2=O)cn1 [Example 9]
95	94	–	COc1ccnc(N2Cc3nn(-c4ccc(N5CC[C@H](F)C5)nc4)cc3C2=O)c1 [Example 77]
53	80	–	Cc1cccc(N2Cc3nn(-c4ccc(N5CC[C@@H](F)C5)nc4)cc3C2=O)c1 [Example 61]
75	–	–	O=C1c2cn(-c3ccc(N4CC[C@H](F)C4)nc3)nc2CN1c1nccs1 [Example 136]
47	–	–	Cc1cccc(N2Cc3nn(-c4ccc(N5CC[C@H](F)C5)nc4)cc3C2=O)n1 [Example 83]
80	99	–	O=C1c2cn(-c3ccc(N4CC[C@@H](F)C4)nc3)nc2CN1c1ccns1 [Example 125]
95	100	–	COc1cc(N2Cc3nn(-c4ccc(N5CC[C@H](F)C5)nc4)cc3C2=O)ccn1 [Example 106]
39	86	–	O=C1c2cn(-c3ccc(N4CC[C@@H](F)C4)nc3)nc2CN1c1cccnn1 [Example 152]
75	105	–	Cc1ccc(N2Cc3nn(-c4ccc(N5CC[C@@H](F)C5)nc4)cc3C2=O)nc1 [Example 110]
72	98	–	O=C1c2cn(-c3ccc(N4CC[C@@H](F)C4)nc3)nc2CN1c1cnsc1 [Example 131]
69	93	–	COc1ccnc(N2Cc3nn(-c4ccc(N5CC[C@@H](F)C5)nc4)cc3C2=O)c1 [Example 76]
70	–	–	Cc1cccc(N2Cc3nn(-c4ccc(N5CC[C@H](F)C5)nc4)cc3C2=O)c1 [Example 38]
50	98	–	Cc1ccc(N2Cc3nn(-c4ccc(N5CC[C@H](F)C5)nc4)cc3C2=O)cn1 [Example 11]
46	64	–	O=C1c2cn(-c3ccc(N4CC[C@@H](F)C4)nc3)nc2CN1c1ccncc1O [Example 174]
89	99	–	COc1ccc(N2Cc3nn(-c4ccc(N5CC[C@H](F)C5)nc4)cc3C2=O)nc1 [Example 28]
14	38	–	N#Cc1cccc(N2Cc3nn(-c4ccc(N5CC[C@H](F)C5)nc4)cc3C2=O)n1 [Example 84]
88	107	–	O=C1c2cn(-c3ccc(N4CC[C@H](F)C4)nc3)nc2CN1c1ccc(O)cn1 [Example 165]
34	61	–	Cc1cnccc1N1Cc2nn(-c3ccc(N4CC[C@@H](F)C4)nc3)cc2C1=O [Example 122]
75	–	–	N#Cc1ccnc(N2Cc3nn(-c4ccc(N5CC[C@H](F)C5)nc4)cc3C2=O)c1 [Example 88]
35	84	–	O=C1c2cn(-c3ccc(N4CC[C@@H](F)C4)nc3)nc2CN1c1ncco1 [Example 137]
13	54	–	O=C1c2cn(-c3ccc(N4CC[C@H](F)C4)nc3)nc2CN1c1ccccc1O [Example 176]
65	102	–	O=C1c2cn(-c3ccc(N4CC[C@H](F)C4)nc3)nc2CN1c1cc(O)ccn1 [Example 170]
86	98	–	Cc1cc(N2Cc3nn(-c4ccc(N5CC[C@H](F)C5)nc4)cc3C2=O)ccn1 [Example 104]
30	36	–	O=C1c2cn(-c3ccc(N4CC[C@H](F)C4)nc3)nc2CN1c1cccnc1O [Example 168]
